Where two headings read alike, the source gives them in different places.
Columns and labels:
EED = EED (Homo sapiens, UniProt O75530); experiment: EED TR-FRET Binding Assay (modified LanthaScreen competition assay)
Protocol: Compounds were tested in a modified LanthaScreen competition assay.
The following buffer was used to set up the binding reactions: 20 mM Tris-HCl pH 7.5, 200 mM NaCl, 0.01% Tween-20, 10 uM DTT (dithiothreitol), and 0.05% BSA (bovine serum albumin), with the DTT and BSA added fresh prior to initiating the binding assay. […] The reactions were then incubated for 1 hour at 25° C. in a humidified chamber prior to detection on the Perkin Elmer Envision plate reader using a Lanthascreen TR-FRET protocol.

Pfeiffer cells = experiment: CTG cell viability assay (CellTiter-Glo); format: cell-based; settings: Homo sapiens, 240 h
Protocol: 1,000 cells were plated into each well of 96-well Corning CellBing cell culture plates and incubated overnight at 37° C. in a humidified CO2 incubator. […] The cell culture plates were then incubated for 10 more days. CTG cell viability assay was performed on the cell culture samples by using CellTiter-Glo® Luminescent Cell Viability Assay Kit (Promega).

[1] = Pfeiffer cells, 10 days with compound, CellTiter-Glo, read-out: Cell Proliferation IC50

Sequence of EED (O75530 whole entry): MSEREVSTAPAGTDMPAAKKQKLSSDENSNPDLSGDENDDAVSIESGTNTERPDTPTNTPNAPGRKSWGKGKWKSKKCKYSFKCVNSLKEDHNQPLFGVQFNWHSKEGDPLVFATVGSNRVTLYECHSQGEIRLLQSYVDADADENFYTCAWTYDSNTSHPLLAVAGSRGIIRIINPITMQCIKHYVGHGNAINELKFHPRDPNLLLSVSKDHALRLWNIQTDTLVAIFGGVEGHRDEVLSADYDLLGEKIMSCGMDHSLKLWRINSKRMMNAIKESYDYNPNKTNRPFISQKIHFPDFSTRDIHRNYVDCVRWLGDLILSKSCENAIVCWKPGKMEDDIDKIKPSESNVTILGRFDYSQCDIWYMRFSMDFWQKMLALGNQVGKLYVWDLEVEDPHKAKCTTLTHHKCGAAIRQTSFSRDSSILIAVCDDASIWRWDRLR

IC50 (EED)	SMILES	IC50 (Pfeiffer cells; [1])	IC50 (Pfeiffer cells; Pfeiffer, read-out: Cell Proliferation IC50 (uM))
1.73 nM	CN(C)[C@H]1CN(C2CCc3cccc(F)c32)C[C@@H]1c1cn(C)c2c(C(=O)NC3CCS(=O)(=O)C3)cccc12 (mixture of isomers) [Example 115, rac-3-[(3S,4R)-4-(dimethylamino)-1-(7-fluoro-2,3-dihydro-1H-inden-1-yl)pyrrolidin-3-yl]-N-(1,1-dioxo-1lambda~6~-thiolan-3-yl)-1-methyl-1H-indole-7-carboxamide]	0.224 µM	
1.6 nM	CN(C(=O)c1cccc2c([C@H]3CN(C4CCc5cccc(F)c54)C[C@@H]3N(C)C)cn(C)c12)C1CC(O)C1 (mixture of isomers) [Example 109, rac-3-[(3S,4R)-4-(dimethylamino)-1-(7-fluoro-2,3-dihydro-1H-inden-1-yl)pyrrolidin-3-yl]-N-(3-hydroxycyclobutyl)-N,1-dimethyl-1H-indole-7-carboxamide]	0.141 µM	
2.7 nM	CN(C)[C@H]1CN(C2CCc3cc(F)cc(F)c32)C[C@@H]1c1cn(C)c2ccccc12 (mixture of isomers) [Example 95, rac-(3R,4S)-1-(5,7-difluoro-2,3-dihydro-1H-inden-1-yl)-N,N-dimethyl-4-(1-methyl-1H-indol-3-yl)pyrrolidin-3-amine]	1.72 µM	
3.53 nM	CC(=O)N1CCN(C(=O)c2ccc3c([C@H]4CN(C5CCc6cccc(F)c65)C[C@@H]4N(C)C)cn(C)c3c2)CC1 (mixture of isomers) [Example 123, rac-1-(4-{3-[(3S,4R)-4-(dimethylamino)-1-(7-fluoro-2,3-dihydro-1H-inden-1-yl)pyrrolidin-3-yl]-1-methyl-1H-indole-6-carbonyl}piperazin-1-yl)ethan-1-one]	1.53 µM	
2.5 nM	CN(C)[C@H]1CN(C2CCc3cccc(F)c32)C[C@@H]1c1cn(C)c2c(C(=O)N3CCN4CCNC(=O)C4C3)cccc12 (mixture of isomers) [Example 134, rac-8-{3-[(3S,4R)-4-(dimethylamino)-1-(7-fluoro-2,3-dihydro-1H-inden-1-yl)pyrrolidin-3-yl]-1-methyl-1H-indole-7-carbonyl}hexahydro-2H-pyrazino[1,2-a]pyrazin-1(6H)-one]	0.833 µM	
2.45 nM	CN(C)[C@H]1CN(C2CCc3cccc(F)c32)C[C@@H]1c1cn(C)c2c(C(=O)O)cccc12 (stereo partly drawn) [Example 79, 3-[(3S,4R)-4-(dimethylamino)-1-(7-fluoro-2,3-dihydro-1H-inden-1-yl)pyrrolidin-3-yl]-1-methyl-1H-indole-7-carboxylic acid]	1.02 µM	
5.58 nM	CN(C)[C@H]1CN(C2CCc3cccc(F)c32)C[C@@H]1c1cn(C)c2cc(C(=O)N3C[C@H](O)[C@@H](O)C3)ccc12 (mixture of isomers) [Example 114, rac-[(3S,4S)-3,4-dihydroxypyrrolidin-1-yl]{3-[(3S,4R)-4-(dimethylamino)-1-(7-fluoro-2,3-dihydro-1H-inden-1-yl)pyrrolidin-3-yl]-1-methyl-1H-indol-6-yl}methanone]	3.13 µM	
3.06 nM	Cc1noc(-c2ccc([C@H]3CN(C4CCc5cccc(F)c54)C[C@@H]3N(C)C)cc2)n1 (mixture of isomers) [Example 67, rac-(3R,4S)-1-(7-fluoro-2,3-dihydro-1H-inden-1-yl)-N,N-dimethyl-4-[4-(3-methyl-1,2,4-oxadiazol-5-yl)phenyl]pyrrolidin-3-amine]	1.63 µM	
6.8 nM	CN(C)[C@@H]1CN(C2CCc3cccc(F)c32)C[C@H]1c1ccc(C(N)=O)cc1 (mixture of isomers) [Example 35, rac-4-[(3R,4S)-4-(dimethylamino)-1-(7-fluoro-2,3-dihydro-1H-inden-1-yl)pyrrolidin-3-yl]benzamide]	> 10 µM	
2.88 nM	CN(C)[C@H]1CN(C2CCc3cccc(F)c32)C[C@@H]1c1cn(C)c2cc(C(=O)N3CCN(S(C)(=O)=O)CC3)ccc12 (mixture of isomers) [Example 122, rac-{3-[(3S,4R)-4-(dimethylamino)-1-(7-fluoro-2,3-dihydro-1H-inden-1-yl)pyrrolidin-3-yl]-1-methyl-1H-indol-6-yl}[4-(methanesulfonyl)piperazin-1-yl]methanone]	0.556 µM	
1.91 nM	CN(C)[C@H]1CN(C2CCc3cccc(F)c32)C[C@@H]1c1cn(C)c2c(C(=O)N3CCN(c4cccnn4)CC3)cccc12 (mixture of isomers) [Example 137, rac-{3-[(3S,4R)-4-(dimethylamino)-1-(7-fluoro-2,3-dihydro-1H-inden-1-yl)pyrrolidin-3-yl]-1-methyl-1H-indol-7-yl}[4-(pyridazin-3-yl)piperazin-1-yl]methanone]	0.299 µM	
1.5 nM	CN(C)[C@H]1CN(C2CCc3cccc(F)c32)C[C@@H]1c1cn(C)c2c(C(=O)NC3CC(O)C3)cccc12 (mixture of isomers) [Example 108, rac-3-[(3S,4R)-4-(dimethylamino)-1-(7-fluoro-2,3-dihydro-1H-inden-1-yl)pyrrolidin-3-yl]-N-(3-hydroxycyclobutyl)-1-methyl-1H-indole-7-carboxamide]	0.152 µM	
4.58 nM	CN(C)[C@H]1CN(C2CCc3cccc(F)c32)C[C@@H]1C1CCN(c2ccccc2)CC1 (mixture of isomers) [Example 146, rac-(3R,4S)-1-(7-fluoro-2,3-dihydro-1H-inden-1-yl)-N,N-dimethyl-4-(1-phenylpiperidin-4-yl)pyrrolidin-3-amine]	2.9 µM	
11.4 nM	CN(C)[C@H]1CN(C2C[C@H](F)c3cccc(F)c32)C[C@@H]1c1ccc(S(C)(=O)=O)cc1 (mixture of isomers) [Example 30, rac-(3R,4S)-1-[(3S)-3,7-difluoro-2,3-dihydro-1H-inden-1-yl]-4-[4-(methanesulfonyl)phenyl]-N,N-dimethylpyrrolidin-3-amine]	3.1 µM	
2.59 nM	CN(C)C1CN(C2CCc3cccc(F)c32)CC1c1cn(C)c2cc(C(=O)N3CCC(O)C3)ccc12 (racemic) [Example 111, rac-{3-[(3S,4R)-4-(dimethylamino)-1-(7-fluoro-2,3-dihydro-1H-inden-1-yl)pyrrolidin-3-yl]-1-methyl-1H-indol-6-yl}[(35)-3-hydroxypyrrolidin-1-yl]methanone]	0.171 µM	
1.99 nM	CN(C)[C@@H]1CN(C2CCc3cccc(F)c32)C[C@H]1c1ccc(N2CCNCC2)cc1 (mixture of isomers) [Example 41, rac-(3S,4R)-1-(7-fluoro-2,3-dihydro-1H-inden-1-yl)-N,N-dimethyl-4-[4-(piperazin-1-yl)phenyl]pyrrolidin-3-amine]	0.188 µM	
2.4 nM	CN(C)[C@@H]1CN(C2CCc3cccc(F)c32)C[C@H]1c1ccc(-c2cnn(CC(=O)N3CC(O)C3)c2)nc1 (mixture of isomers) [Example 150, rac-2-(4-{5-[(3R,4S)-4-(dimethylamino)-1-(7-fluoro-2,3-dihydro-1H-inden-1-yl)pyrrolidin-3-yl]pyridin-2-yl}-1H-pyrazol-1-yl)-1-(3-hydroxyazetidin-1-yl)ethan-1-one]	0.95 µM	
2.24 nM	CN(C)[C@@H]1CN(C2CCc3cccc(F)c32)C[C@H]1c1ccc(N2CCN(C(=O)C3COC3)CC2)nc1 (mixture of isomers) [Example 151, rac-(4-{5-[(3R,4S)-4-(dimethylamino)-1-(7-fluoro-2,3-dihydro-1H-inden-1-yl)pyrrolidin-3-yl]pyridin-2-yl}piperazin-1-yl)(oxetan-3-yl)methanone]	0.559 µM	
2.01 nM	CN(C)[C@@H]1CN(C2CCc3cccc(F)c32)C[C@H]1c1ccc(-c2cnn(CC(=O)N3CC(F)C3)c2)nc1 (mixture of isomers) [Example 153, rac-2-(4-{5-[(3R,4S)-4-(dimethylamino)-1-(7-fluoro-2,3-dihydro-1H-inden-1-yl)pyrrolidin-3-yl]pyridin-2-yl}-1H-pyrazol-1-yl)-1-(3-fluoroazetidin-1-yl)ethan-1-one]	0.419 µM	
1.26 nM	CN(C)[C@H]1CN(C2CCc3cccc(F)c32)C[C@@H]1c1cn(C)c2c(C(=O)N3CCC[C@H]3C(N)=O)cccc12 (mixture of isomers) [Example 117, rac-1-{3-[(3S,4R)-4-(dimethylamino)-1-(7-fluoro-2,3-dihydro-1H-inden-1-yl)pyrrolidin-3-yl]-1-methyl-1H-indole-7-carbonyl}-L-prolinamide]	0.111 µM	
1.91 nM	CNC(=O)c1cccc2c([C@H]3CN(C4CCc5cccc(F)c54)C[C@@H]3N(C)C)cn(C)c12 (mixture of isomers) [Example 99, rac-3-[(3S,4R)-4-(dimethylamino)-1-(7-fluoro-2,3-dihydro-1H-inden-1-yl)pyrrolidin-3-yl]-N,1-dimethyl-1H-indole-7-carboxamide]	0.303 µM	
1.75 nM	CN(C)C(=O)N1CCN(C(=O)c2cccc3c([C@H]4CN(C5CCc6cccc(F)c65)C[C@@H]4N(C)C)cn(C)c23)CC1 (mixture of isomers) [Example 127, rac-4-{3-[(3S,4R)-4-(dimethylamino)-1-(7-fluoro-2,3-dihydro-1H-inden-1-yl)pyrrolidin-3-yl]-1-methyl-1H-indole-7-carbonyl}-N,N-dimethylpiperazine-1-carboxamide]	0.335 µM	

SMILES	IC50 (EED)	IC50 (Pfeiffer cells; [1])	IC50 (Pfeiffer cells; Pfeiffer, read-out: Cell Proliferation IC50 (uM))
CC(=O)N1CCN(c2ccc([C@H]3CN([C@@H]4CCc5cccc(F)c54)C[C@@H]3N(C)C)cc2)CC1 [Example 46, 1-[4-(4-{(3S,4R)-4-(dimethylamino)-1-[(1R)-7-fluoro-2,3-dihydro-1H-inden-1-yl]pyrrolidin-3-yl}phenyl)piperazin-1-yl]ethan-1-one]	3.36 nM		1.01 µM

From patent publication US9957274B2, “Indane inhibitors of EED and methods of their use” (AbbVie Inc., priority 2016, dated 2018)
